According to PubChem BioAssay (NCI):
Several values for one entry are separate records, joined by “and”; a condition that tells them apart may be missing. Equal entries are not always repeated.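 Cells were grown in 96-well plates and exposed to each compound for 48 hours at five concentrations; endpoints were interpolated linearly between bracketing concentrations, or set to the highest concentration if not reached. Abbreviation: GI50, concentration required for 50% inhibition of growth. TGI: concentration producing complete growth inhibition.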

Legend:
Assay in all cases: NCI-60 cell line screen, 48 h
HT29 colon = tested on: HT29 colon
SF-295 CNS = tested on: SF-295 CNS
NCI-H522 lung = tested on: NCI-H522 lung
CAKI-1 renal = tested on: CAKI-1 renal
HCT-15 colon = tested on: HCT-15 colon
SK-MEL-28 melanoma = tested on: SK-MEL-28 melanoma
M14 melanoma = tested on: M14 melanoma
CCRF-CEM leukemia = tested on: CCRF-CEM leukemia
SK-MEL-5 melanoma = tested on: SK-MEL-5 melanoma
HL-60(TB) leukemia = tested on: HL-60(TB) leukemia

## Cc1cc(Br)cc(C)c1NC(=O)C(=O)Nn1c(=S)[nH]c2ccccc2c1=O
HT29 colon
  TGI: > 100 µM
SF-295 CNS
  TGI: > 100 µM
NCI-H522 lung
  TGI: > 100 µM
CAKI-1 renal
  TGI: > 100 µM
HCT-15 colon
  TGI: > 100 µM
SK-MEL-28 melanoma
  TGI: > 100 µM
M14 melanoma
  TGI: > 100 µM
CCRF-CEM leukemia
  TGI: > 100 µM
SK-MEL-5 melanoma
  TGI: > 100 µM
HL-60(TB) leukemia
  TGI: > 100 µM

## NS(=O)(=O)c1ccc(NC(=O)c2cccc(NC3=C(Cl)C(=O)N(Cc4ccccc4)C3=O)c2)cc1
HT29 colon
  GI50: 33.3 µM
  TGI: > 100 µM
SF-295 CNS
  GI50: 5.59 µM
  TGI: 22.5 µM
NCI-H522 lung
  GI50: 12.1 µM
  TGI: 30.9 µM
CAKI-1 renal
  GI50: 12.5 µM
  TGI: 25.9 µM
HCT-15 colon
  GI50: 15.1 µM
  TGI: 38.8 µM
SK-MEL-28 melanoma
  GI50: 20 µM
  TGI: 42.9 µM
M14 melanoma
  GI50: 15.8 µM
  TGI: 38.7 µM
CCRF-CEM leukemia
  GI50: 2.82 µM
  TGI: 8.17 µM
SK-MEL-5 melanoma
  GI50: 7.87 µM
  TGI: 24.1 µM
HL-60(TB) leukemia
  GI50: 2.02 µM
  TGI: 6.01 µM

## C=CC(C)(O)CC/C=C(\CO)C(=O)OC1C(C)OC(O[C@](C)(C=C)CC/C=C(\CO)C(=O)O[C@H]2C[C@@]3(C(=O)OC4OC(CO)C(O)C(O)C4OC4OC(C)C(OC5OC(CO)C(O)C5O)C(OC5OC(CO)C(O)C(O)C5O)C4O)C(CC2(C)C)C2=CCC4[C@@]5(C)CC[C@H](OC6OC(COC7OC(C)C(O)C(O)C7OC7OCC(O)C(O)C7O)C(O)C(O)C6NC(C)=O)C(C)(C)C5CC[C@@]4(C)[C@]2(C)C[C@H]3O)C(O)C1O (stereo partly drawn)
HT29 colon
  GI50: 1.42 µM
  TGI: 6.06 µM
SF-295 CNS
  GI50: 0.083 µM
  TGI: 0.312 µM
NCI-H522 lung
  GI50: 0.341 µM
  TGI: 1.61 µM
CAKI-1 renal
  GI50: 0.196 µM
  TGI: 0.916 µM
HCT-15 colon
  GI50: 4.72 µM
  TGI: 10.6 µM
SK-MEL-28 melanoma
  GI50: 0.0852 µM
  TGI: 0.248 µM
M14 melanoma
  GI50: 0.62 µM
  TGI: 2.29 µM
CCRF-CEM leukemia
  GI50: 0.125 µM
  TGI: 7.55 µM
SK-MEL-5 melanoma
  GI50: 1.99 µM
  TGI: 6.22 µM
HL-60(TB) leukemia
  GI50: 0.13 µM
  TGI: 2.53 µM

## O=Cc1ccc(N2CCN(c3ccc(C=O)cc3)CC2)cc1
HT29 colon
  GI50: > 100 µM
  TGI: > 100 µM
SF-295 CNS
  GI50: > 100 µM
  TGI: > 100 µM
NCI-H522 lung
  GI50: 43.1 µM
  TGI: > 100 µM
CAKI-1 renal
  GI50: 10.8 µM
  TGI: 76.5 µM
HCT-15 colon
  GI50: > 100 µM
  TGI: > 100 µM
SK-MEL-28 melanoma
  GI50: > 100 µM
  TGI: > 100 µM
M14 melanoma
  GI50: > 100 µM
  TGI: > 100 µM
CCRF-CEM leukemia
  GI50: > 100 µM
  TGI: > 100 µM
SK-MEL-5 melanoma
  GI50: > 100 µM
  TGI: > 100 µM
HL-60(TB) leukemia
  GI50: > 100 µM
  TGI: > 100 µM

## Cc1cc2nc3c4ccc(Br)cc4n(CCN(C)C)c3nc2cc1C
HT29 colon
  GI50: 0.664 µM
  TGI: 2.89 µM
SF-295 CNS
  GI50: 0.804 µM
  TGI: 2.91 µM
NCI-H522 lung
  GI50: 1.99 µM
  TGI: 4.66 µM
CAKI-1 renal
  GI50: 1.53 µM
  TGI: 5.42 µM
HCT-15 colon
  GI50: 0.751 µM
  TGI: 6.24 µM
SK-MEL-28 melanoma
  GI50: 1.69 µM
  TGI: 3.12 µM
M14 melanoma
  GI50: 1.55 µM
  TGI: 3.39 µM
CCRF-CEM leukemia
  GI50: 1.5 µM
  TGI: 10.5 µM
SK-MEL-5 melanoma
  GI50: 1.72 µM
  TGI: 3.12 µM
HL-60(TB) leukemia
  GI50: 1.45 µM
  TGI: 5.68 µM

## CC(/C=N/N=C(N)N)=N\N=C(N)N
HT29 colon
  GI50: 18.6 µM and 17.1 µM
  TGI: > 58 µM and 1620 µM
SF-295 CNS
  TGI: 856 µM
NCI-H522 lung
  GI50: 25.1 µM
  TGI: 248 µM
CAKI-1 renal
  GI50: 51.7 µM and 15.7 µM
  TGI: 1010 µM
HCT-15 colon
  GI50: > 51.4 µM
  TGI: 2500 µM
SK-MEL-28 melanoma
  GI50: > 80.2 µM
  TGI: 363 µM
M14 melanoma
  TGI: 425 µM
CCRF-CEM leukemia
  GI50: 18.8 µM
  TGI: > 78.5 µM and 1300 µM
SK-MEL-5 melanoma
  GI50: > 79.5 µM
  TGI: 604 µM
HL-60(TB) leukemia
  GI50: 69.1 µM
  TGI: 578 µM
